From patent publication US20140128336A1, “MEDICAL PRODUCTS FOR USE IN CONDITIONS RELATED TO MICROBIAL INFECTIONS IN THE UPPER AERODIGESTIVE TRACT” (BIOHIT OYJ, priority 2011, published 2014)

Legend:
[1] = system: H. pylori strains (NCTC 11637, ATCC 43504); assay: Modified pellicle assay for H. pylori biofilm formation; format: cell-based, Helicobacter pylori
Description: In this example, H. pylori strains (NCTC 11637, National Culture Collection, London, UK, and ATCC 43504, American Type Culture Collection), grown in liquid culture without shaking, were examined to determine their ability to form biofilms in the presence and absence of L-cysteine. The bacteria were screened for biofilm production using modified pellicle assay as previously described by Joshua et al. 2006 (14). The formation of pellicles at the liquid-gas interface of cultures grown without shaking was observed after 3-6 days. All isolates were grown in 13-by 125-mm glass test tubes containing 6 ml of BHI broth supplemented with 2% (w/v) β-cyclodextrin (BCD; Sigma) in the presence and absence of L-cysteine. The bacterial concentration was adjusted equivalently to approximately 0.5 McFarland standard (˜10^8 CFU/ml). The cultures were incubated under microaerobic conditions (N2 85%; O2 5%; CO2 10%) at 35° C. for 7 days without shaking. Development of pellicle and/or attached bacterial cells at interior surface of test tube at the air-liquid interface, representing as biofilm, was examined daily. In the tests using L-cysteine and N-acetyl-cysteine, increasing amounts of L-cysteine or N-acetyl-cysteine were added in increasing concentrations to the culture medium.

[2] = system: H. pylori; assay: Open-label randomized trial, eradication of Helicobacter pylori; format: in vivo, human; details: patients with at least four eradication failures; 600 mg NAC once a day for seven days before culture-guided antibiotic regimen; standard group 4/20
Method: In this open-label randomized trial, 50% of patients with at least four H. pylori eradication failures received before culture-guided antibiotic regimen 600 mg of N-acetylcysteine (NAC) once a day for seven days. In the NAC-pretreatment group H. pylori were successfully eradicated in 13/20 and in standard group only in 4/20 patients (p<01).

[3] = system: C. cladosporioides; details: block containing cysteine; cited from earlier work
[4] = system: Cladosporium cladosporioides; details: cited from earlier work

SMILES | inhibition of H. pylori biofilm formation ([1]; 2 mg/ml in culture medium) | inhibition of H. pylori biofilm formation ([1]; 10 mg/ml in culture medium) | inhibition of H. pylori biofilm formation ([1]; 20 mg/ml in culture medium) | H. pylori successfully eradicated [2] | biofilm of C. cladosporioides on surface of silicone block [3] | production of ATP in C. cladosporioides [4] | growth of Cladosporium cladosporioides ([4]; cultured with cysteine)
N[C@@H](CS)C(=O)O [L-cysteine] | partly | completely | completely | – | – | – | –
CC(=O)N[C@@H](CS)C(=O)O [N-acetylcysteine, reference compound] | partly | completely | completely | 13/20 | – | – | –
N[C@@H](CS)C(=O)O [cysteine] | – | – | – | – | not covered with biofilm | inhibited | completely and statically inhibited
